From patent US11820747B2, “PPARG inverse agonists and uses thereof” (Flare Therapeutics Inc., priority 2021, dated 2023)

Key:
[1] = target: T1, PPARG/RXRA LBD heterodimer (Homo sapiens, UniProt P37231); test: PPARγ-MED1 blockade assay (TR-FRET, biotinylated MED1 LxxLL peptide); assay type: binding; settings: for Emax: 3 h, maximal extent, GW9662 defined as 100%, DMSO 0%, read-out: % MED1 blockade relative to GW9662; for EC50: TR-FRET, 80 nM Rosiglitazone, 3 hours incubation
T1 construct: His-TEV-Q203-Y477; Uniprot ID P37231-2; made in house; host or cells: E. coli
T1 sequence (P37231 203-477 isoform P37231-2): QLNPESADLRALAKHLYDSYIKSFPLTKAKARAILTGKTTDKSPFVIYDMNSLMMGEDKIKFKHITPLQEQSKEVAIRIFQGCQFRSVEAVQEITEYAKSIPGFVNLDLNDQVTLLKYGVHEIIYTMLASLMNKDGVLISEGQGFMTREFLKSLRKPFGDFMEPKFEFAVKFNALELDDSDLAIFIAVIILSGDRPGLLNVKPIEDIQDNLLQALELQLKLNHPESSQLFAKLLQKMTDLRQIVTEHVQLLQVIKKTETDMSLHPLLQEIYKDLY
T1 sequence (P19793 228-462 partner limits assumed): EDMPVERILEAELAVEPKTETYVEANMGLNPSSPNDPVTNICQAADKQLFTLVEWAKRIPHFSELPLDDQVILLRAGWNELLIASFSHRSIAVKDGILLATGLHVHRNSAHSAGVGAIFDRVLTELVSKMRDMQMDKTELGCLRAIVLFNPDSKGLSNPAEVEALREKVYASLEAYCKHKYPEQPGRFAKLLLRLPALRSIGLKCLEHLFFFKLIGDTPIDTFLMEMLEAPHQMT
Procedure: PPARγ-MED1 Blockade Assay:
Compound potency (ICs) and maximal extent of MED1 repulsion to PPARG were assessed a TR-FRET binding assay measuring association of a biotinylated MED1 LxxLL peptide (Biotin-[…]-amide) to PPARG/RXRA LBD heterodimer. Specifically, a 20 microliters of TR-FRET master mix consisting of 2 nM WT PPARG LBD (E. coli expressed, His-TEV-Q203-Y477; Uniprot ID P37231-2), 2 nM WT RXRA LBD (E. coli expressed, Flag-TEV-E228-T462; […]. Mixtures were incubated for 3 hours and read in an EnVision plate reader (Perkin Elmer) with […]. To determine the potency (ICso) and extent of MED1 repulsion. TR-FRET ratios were normalized to the average ratio of DMSO control wells (0%) and to the average minimum ratio for positive control compound (GW9662 (2-chloro-5-nitrobenzanilide); defined as 100%/6) in CDD Vault and analyzed using the Levenberg-Marquardt algorithm.

[2] = target: T2, PPARG/RXRA LBD heterodimer (Homo sapiens, UniProt P37231); test: PPARγ-NCOR1 recruitment assay (TR-FRET, biotinylated NCOR1 ID2 peptide); assay type: binding; settings: for Emax: 3 h, maximal extent, T0070907 defined as 100%, DMSO 0%, read-out: % NCOR recruitment relative to T907; for EC50: TR-FRET, 80 nM Rosiglitazone, 3 hours incubation, read-out: PPARG-NCOR recruitment assay EC50
T2 construct: His-TEV-Q203-Y477: Uniprot ID P37231-2; made in house; host or cells: E. coli
Procedure: PPARγ-NCOR1 Recruitment Assay:
Compound potency (EC50) and maximal extent of NCOR1 recruitment to PPARG were assessed a TR-FRET binding assay measuring association of a biotinylated NCOR1 ID2 peptide (Biotin-[…]-amide) to PPARG/RXRA LBD heterodimer. Specifically, a 20 microliters of TR-FRET master mix consisting of 2 nM WT PPARG LBD (E. coli expressed, His-TEV-Q203-Y477: Uniprot ID P37231-2), 2 nM WT RXRA LBD or mutant S427F RXRA LBD (E. coli expressed, Flag-TEV-E228-T462; […]. Mixtures were incubated for 3 hours and read in an EnVision plate reader (Perkin Elmer) with […]. To determine the potency (EC50) and extent of NCOR1 recruitment, TR-FRET ratios were normalized to the average ratio of DMSO control wells (0%) and to the average maximum ratio for positive control compound (T0070907 (2-chloro-5-nitro-N-4-pyridinyl-benzamide); defined as 100%) in CDD Vault and analyzed using the Levenberg-Marquardt algorithm.
T2 sequence (O75376 2251-2273 partner, one chain of several): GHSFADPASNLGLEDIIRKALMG

[3] = system: ANGPTL4, a PPARG target gene, in HT1197 (RXRA S427F mutation) cells; test: Bladder cancer pharmacodynamic assay, HT1197 cell assay (quantitative PCR of PPARG target genes); assay type: cell-based; settings: Homo sapiens; for inhibition at 0.1 µM: 100 nM compound, 24 hours, percentage of a DMSO control; for EC50: 24 hours treatment, qPCR
Procedure: Bladder Cancer Pharmacodynamic Assay
5637 (PPARG amplified) and HT1197 (RXRA S427F mutation) cells were used for assessment of modulation of PPARG target genes using quantitative PCR. Cells were treated for 24 hours with PPARG inverse agonists prior to analysis of FABP4 (IDT, Cat: Hs.PT 58.20106818) and ANGPTL4 (IDT, Cat: Hs.PT 58.25480012) expression, with expression of the housekeeping gene TBP (IDT, Cat: Hs.PT 58v.39858774) used to normalize expression across samples. Quantitative PCR was performed using an ABI QuantStudio 7 Flex Reaction system. Data were analyzed and reported relative to DMSO control using the comparative Ct method (ΔΔCt).

SMILES: C[S+]([O-])c1ccc(C#N)cc1-c1cc(=O)c2c(F)cc(F)cc2[nH]1 (centres unmarked) [Example 7, 3-(5,7-difluoro-4-oxo-1,4-dihydroquinolin-2-yl)-4-(methylsulfinyl)benzonitrile]
- Emax [1]: > 100%
- EC50 [1]: > 10000 nM
- Emax [2]: > 100%
- EC50 [2]: 1000 to 10000 nM
- inhibition at 0.1 µM [3]: 26%

SMILES: N#Cc1ccc(S(=O)(=O)C(F)(F)F)c(-c2cc(=O)c3c(F)cc(F)cc3[nH]2)c1 [Example 11]
- Emax [1]: > 100%
- EC50 [1]: < 10 nM
- Emax [2]: > 100%
- EC50 [2]: < 10 nM
- inhibition at 0.1 µM [3]: 88%
- EC50 [3]: 0.07 nM

SMILES: N#Cc1ccc([S+]([O-])CC(F)(F)F)c(-c2cc(=O)c3c(F)cc(F)cc3[nH]2)c1 (centres unmarked) [Example 5]
- Emax [1]: > 100%
- EC50 [1]: 1000 to 10000 nM
- Emax [2]: > 100%
- EC50 [2]: 1000 to 10000 nM
- inhibition at 0.1 µM [3]: 15%

SMILES: CS(=O)(=O)c1ccc(C#N)cc1-c1cc(=O)c2c(F)cc(Cl)cc2[nH]1 [Example 10]
- Emax [1]: > 100%
- EC50 [1]: 10 to 100 nM
- Emax [2]: > 100%
- EC50 [2]: 10 to 100 nM
- inhibition at 0.1 µM [3]: 89%
- EC50 [3]: 1.6 nM

SMILES: Cn1cc(-c2c(F)cc3[nH]c(-c4cc(C#N)ccc4S(C)(=O)=O)cc(=O)c3c2F)cn1 [Example 14]
- Emax [1]: > 100%
- EC50 [1]: 10 to 100 nM
- Emax [2]: > 100%
- EC50 [2]: 10 to 100 nM
- inhibition at 0.1 µM [3]: 89%

SMILES: CCS(=O)(=O)c1ccc(C#N)cc1-c1cc(=O)c2c(F)cc(F)cc2[nH]1 [Example 2, 3-(5,7-difluoro-4-oxo-1,4-dihydroquinolin-2-yl)-4-(ethylsulfonyl)-benzonitrile]
- Emax [1]: > 100%
- EC50 [1]: 100 to 1000 nM
- Emax [2]: > 100%
- EC50 [2]: 100 to 1000 nM
- inhibition at 0.1 µM [3]: 86%

SMILES: CC(C)CS(=O)(=O)c1ccc(C#N)cc1-c1cc(=O)c2c(F)cc(F)cc2[nH]1 [Example 13, 3-5,7-difluoro-4-oxo-1,4-dihydroquinolin-2-yl-4-(isobutylsulfonyl)benzonitrile]
- Emax [1]: < 100%
- EC50 [1]: 1000 to 10000 nM
- Emax [2]: < 100%
- EC50 [2]: 1000 to 10000 nM
- inhibition at 0.1 µM [3]: 77%

SMILES: CS(=N)(=O)c1ccc(C#N)cc1-c1cc(=O)c2c(F)cc(F)cc2[nH]1 (centres unmarked) [Example 8, 3-(5,7-difluoro-4-oxo-1,4-dihydroquinolin-2-yl)-4-(S-methylsulfonimidoyl)benzonitrile]
- Emax [1]: > 100%
- EC50 [1]: 100 to 1000 nM
- Emax [2]: > 100%
- EC50 [2]: 100 to 1000 nM
- inhibition at 0.1 µM [3]: 84%

SMILES: CS(=O)(=O)c1ccc(C#N)cc1-c1cc(=O)c2c(F)cc(F)cc2[nH]1 [Example 1, 3-(5,7-difluoro-4-oxo-1,4-dihydroquinolin-2-yl)-4-(methylsulfonyl)benzonitrile]
- Emax [1]: > 100%
- EC50 [1]: 100 to 1000 nM
- Emax [2]: > 100%
- EC50 [2]: 100 to 1000 nM
- inhibition at 0.1 µM [3]: 88%
- EC50 [3]: 1.3 nM

SMILES: CC(C)S(=O)(=O)c1ccc(C#N)cc1-c1cc(=O)c2c(F)cc(F)cc2[nH]1 [Example 12, 3-(5,7-difluoro-4-oxo-1,4-dihydroquinolin-2-yl)-4-(isopropylsulfonyl)benzonitrile]
- Emax [1]: < 100%
- EC50 [1]: > 10000 nM
- Emax [2]: < 100%
- EC50 [2]: > 10000 nM
- inhibition at 0.1 µM [3]: 67%

SMILES: N#Cc1ccc(S(=O)(=O)CC(F)(F)F)c(-c2cc(=O)c3c(F)cc(F)cc3[nH]2)c1 [Example 4, 3-(5,7-difluoro-4-oxo-1,4-dihydroquinolin-2-yl)-4-((2,2,2-trifluoroethyl)sulfonyl)-benzonitrile]
- Emax [1]: > 100%
- EC50 [1]: 100 to 1000 nM
- Emax [2]: > 100%
- EC50 [2]: 100 to 1000 nM
- inhibition at 0.1 µM [3]: 14%

SMILES: CSc1ccc(C#N)cc1-c1cc(=O)c2c(F)cc(F)cc2[nH]1 [Example 6, 3-(5,7-difluoro-4-oxo-1,4-dihydroquinolin-2-yl)-4-(methylthio)benzonitrile]
- EC50 [1]: > 10000 nM
- EC50 [2]: > 10000 nM
- inhibition at 0.1 µM [3]: 17%

SMILES: CN1CCN(c2c(F)cc3[nH]c(-c4cc(C#N)ccc4S(C)(=O)=O)cc(=O)c3c2F)CC1 [Example 3, 3-(5,7-difluoro-6-(4-methylpiperazin-1-yl)-4-oxo-1,4-dihydroquinolin-2-yl)-4-(methylsulfonyl)-benzonitrile]
- Emax [1]: > 100%
- EC50 [1]: 100 to 1000 nM
- Emax [2]: > 100%
- EC50 [2]: 100 to 1000 nM
- inhibition at 0.1 µM [3]: 66%

SMILES: CS(=O)(=O)c1ccc(C#N)cc1-c1cc(=O)c2ccc(Cl)cc2[nH]1 [Example 9, 3-(7-chloro-4-oxo-1,4-dihydroquinolin-2-yl)-4-(methylsulfonyl)benzonitrile]
- Emax [1]: > 100%
- EC50 [1]: 10 to 100 nM
- Emax [2]: > 100%
- EC50 [2]: 10 to 100 nM
- inhibition at 0.1 µM [3]: 85%
- EC50 [3]: 0.9 nM

SMILES: Cc1ccc(-c2c(F)cc3[nH]c(-c4cc(C#N)ccc4S(C)(=O)=O)cc(=O)c3c2F)cn1 [Example 15, 3-(5,7-difluoro-6-(6-methylpyridin-3-yl)-4-oxo-1,4-dihydroquinolin-2-yl)-4-(methylsulfonyl)benzonitrile]
- Emax [1]: > 100%
- EC50 [1]: 10 to 100 nM
- Emax [2]: > 100%
- EC50 [2]: 10 to 100 nM
- inhibition at 0.1 µM [3]: 68%
